19 molecules from patent US6512000B1, “Aminocarbonyl-substituted benzimidazoles having tryptase-inhibitory activity” (Boehringer Ingelheim Pharma KG, priority 1999, dated 2003) can be followed below.

In one experiment the target is T1, rh beta tryptase (Homo sapiens, UniProt P20231).
T1 construct: purchased Promega
T1 sequence (P20231 31-275): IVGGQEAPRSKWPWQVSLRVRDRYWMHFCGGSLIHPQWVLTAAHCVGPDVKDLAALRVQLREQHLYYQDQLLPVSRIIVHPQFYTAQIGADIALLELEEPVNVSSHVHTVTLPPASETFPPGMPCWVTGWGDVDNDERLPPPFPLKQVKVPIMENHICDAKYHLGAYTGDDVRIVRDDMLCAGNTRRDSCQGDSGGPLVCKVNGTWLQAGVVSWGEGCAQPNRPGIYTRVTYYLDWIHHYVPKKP
Description: Tryptase inhibition test (cleavage of N-p-tosyl-Gly-Pro-Lys-para-nitroaniline, p-nitroaniline measured at 405 nm). It is filed as biochemical. As to conditions: concentration at which 50% of the tryptase enzyme activity is inhibited; substrate 0.6 mM, pH 7.4, 37° C. Summed up:
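Screening at 10 μM gives percent inhibition, with IC50 derived for compounds above 70% inhibition. Enzyme: rh beta tryptase, 0.91 U/ml, pH 7.4 Tris HCl (100 mM), 5 mM Ca, 100 mg/ml heparin. After 5 min compound pre-incubation, 0.6 mM pNA substrate cleaved 5 min at 37 °C, monitored at 405 nm.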
For orientation: IC50 means the point on the concentration scale where inhibition reaches its midpoint. Molecule `CCOCCCn1c(CCc2ccc(C(=N)N)cc2)nc2cc(C(=O)N(Cc3ccc(CN)cc3)Cc3cccc(OC)c3)ccc21` [Example 70, 2-[2-(4-amidinophenyl)ethyl]-1-(3-ethoxy-propyl)-benzimidazol-5-yl-carboxylic acid-N-[4-(amino-methyl)-benzyl]-N-(3-methoxybenzyl)-amide] gave an IC50 of 422 nM.
On the same count and under the same terms, the figure for `CCCCN(Cc1ccc(CN)cc1)C(=O)c1ccc2c(c1)nc(CCc1ccc(C(=N)N)cc1)n2CCCOCC` [Example 86, 2-[2-(4-amidinophenyl)ethyl]-1-(3-ethoxypropyl)-benzimidazol-5-yl-carboxylic acid-N-[4-(amino-methyl)-benzyl]-N-n-butyl-amide] is 135 nM.

The same experiment, now with this note: inhibition of rh beta tryptase at 10 μM test substance; substrate N-p-tosyl-Gly-Pro-Lys-para-nitroaniline 0.6 mM, pH 7.4, 37° C., 5 minutes.
Broadly, the inhibition is the change of the read-out against control, counted positive when it falls. High values mean strong suppression, low ones little suppression. On to `CCOCCCn1c(CCc2ccc(C(=N)N)cc2)nc2cc(C(=O)N(Cc3ccc(CN)cc3)Cc3cccc(OC)c3)ccc21` [Example 70, 2-[2-(4-amidinophenyl)ethyl]-1-(3-ethoxy-propyl)-benzimidazol-5-yl-carboxylic acid-N-[4-(amino-methyl)-benzyl]-N-(3-methoxybenzyl)-amide], for which the inhibition at 10 µM amounted to 63%.
Take `CCCCN(CCCC)CCCn1c(CCc2ccc(C(=N)N)cc2)nc2cc(C(=O)N(Cc3ccc(CN)cc3)Cc3cccc(OC)c3)ccc21` [Example 71, 2-[2-(4-amidinophenyl)ethyl]-1-(3-di-n-butylaminopropyl)-benzimidazol-5-yl-carboxylic acid-N-[4-(amino-methyl)-benzyl]-N-(3-methoxybenzyl)-amide]: the inhibition at 10 µM was 58%.
`COc1cccc(CN(Cc2ccc(CN)cc2)C(=O)c2ccc3c(c2)nc(CCc2ccc(C(=N)N)cc2)n3CCCNC(=O)Cc2ccccc2)c1` [Example 72, 2-[2-(4-amidinophenyl)ethyl]-1-[3-(benzylcarbonylamino)-propyl]-benzimidazol-5-yl-carboxylic acid-N-[4-(amino-methyl)-benzyl]-N-(3-methoxybenzyl)-amide] had an inhibition at 10 µM of 69%.
In turn, `COc1cccc(CN(Cc2ccc(CN)cc2)C(=O)c2ccc3c(c2)nc(CCc2ccc(C(=N)N)cc2)n3CC2CC2)c1` [Example 74, 2-[2-(4-amidinophenyl)ethyl]-1-cyclopropylmethyl-benzimidazol-5-yl-carboxylic acid-N-[4-(amino-methyl)-benzyl]-N-(3-methoxybenzyl)-amide] yielded an inhibition at 10 µM of 66%.
On the same count and under the same terms, next, `COc1cccc(CN(Cc2ccc(CN)cc2)C(=O)c2ccc3c(c2)nc(CCc2ccc(C(=N)N)cc2)n3CCc2ccccc2)c1` [Example 75, 2-[2-(4-amidinophenyl)ethyl]-1-(2-phenyl-ethyl)-benzimidazol-5-yl-carboxylic acid-N-[4-(amino-methyl)-benzyl]-N-(3-methoxybenzyl)-amide]: 60%.
For the molecule `COc1cccc(CN(Cc2ccc(CN)cc2)C(=O)c2ccc3c(c2)nc(CCc2ccc(C(=N)N)cc2)n3CCc2ccc(Cl)cc2)c1` [Example 76, 2-[2-(4-amidinophenyl)ethyl]-1-[2-(4-chlorophenyl)ethyl]-benzimidazol-5-yl-carboxylic acid-N-[4-(amino-methyl)-benzyl]-N-(3-methoxybenzyl)-amide], the inhibition at 10 µM came out at 58%.
The same measure, in the same setting: the figure for `COc1cccc(CN(Cc2ccc(CN)cc2)C(=O)c2ccc3c(c2)nc(CCc2ccc(C(=N)N)cc2)n3CCCN2CCN(c3ccccc3C)CC2)c1` [Example 80, 2-[2-(4-amidinophenyl)ethyl]-1-{3-[4-(2-methylphenyl)-piperazin-1-yl]-propyl}-benzimidazol-5-yl-carboxylic acid-N-[4-(amino-methyl)-benzyl]-N-(3-methoxybenzyl)-amide] is 53%.
With `COc1cccc(CN(Cc2ccc(CN)cc2)C(=O)c2ccc3c(c2)nc(CCc2ccc(C(=N)N)cc2)n3CCCN2CCOCC2)c1` [Example 81, 2-[2-(4-amidinophenyl)ethyl]-1-[3-(morpholin-4-yl)-propyl]-benzimidazol-5-yl-carboxylic acid-N-[4-(amino-methyl)-benzyl]-N-(3-methoxybenzyl)-amide], the inhibition at 10 µM turned out to be 69%.
`COc1cccc(CN(Cc2ccc(CN)cc2)C(=O)c2ccc3c(c2)nc(CCc2ccc(C(=N)N)cc2)n3CC2CCCO2)c1` (stereo not drawn) [Example 82, 2-[2-(4-amidinophenyl)ethyl]-1-(tetrahydrofuran-2-yl-methyl)-benzimidazol-5-yl-carboxylic acid-N-[4-(amino-methyl)-benzyl]-N-(3-methoxybenzyl)-amide] returned an inhibition at 10 µM of 61%.
The molecule `CCCCN(Cc1ccc(CN)cc1)C(=O)c1ccc2c(c1)nc(CCc1ccc(C(=N)N)cc1)n2CCCOCC` [Example 86, 2-[2-(4-amidinophenyl)ethyl]-1-(3-ethoxypropyl)-benzimidazol-5-yl-carboxylic acid-N-[4-(amino-methyl)-benzyl]-N-n-butyl-amide] gave an inhibition at 10 µM of 72%.
The molecule `CCCCN(CCCC)CCCn1c(CCc2ccc(C(=N)N)cc2)nc2cc(C(=O)N(CCCC)Cc3ccc(CN)cc3)ccc21` [Example 87, 2-[2-(4-amidinophenyl)ethyl]-1-(3-di-n-butylaminopropyl)-benzimidazol-5-yl-carboxylic acid-N-[4-(amino-methyl)-benzyl]-N-n-butyl-amide] gave an inhibition at 10 µM of 59%.
`CCCCN(Cc1ccc(CN)cc1)C(=O)c1ccc2c(c1)nc(CCc1ccc(C(=N)N)cc1)n2CCCNC(=O)Cc1ccccc1` [Example 88]: the “% Inhibition (10 μM)” value is recorded as 70%.
In turn, `CCCCN(Cc1ccc(CN)cc1)C(=O)c1ccc2c(c1)nc(CCc1ccc(C(=N)N)cc1)n2CC1CC1` [Example 90, 2-[2-(4-amidinophenyl)ethyl]-1-cyclopropylmethyl-benzimidazol-5-yl-carboxylic acid-N-[4-(amino-methyl)-benzyl]-N-n-butyl-amide] came in with an inhibition at 10 µM of 67%.
Consider `CCCCN(Cc1ccc(CN)cc1)C(=O)c1ccc2c(c1)nc(CCc1ccc(C(=N)N)cc1)n2CCc1ccccc1` [Example 91, 2-[2-(4-amidinophenyl)ethyl]-1-(2-phenylethyl)-benzimidazol-5-yl-carboxylic acid-N-[4-(amino-methyl)-benzyl]-N-n-butyl-amide], for which at 10 µM the inhibition was 62%.
`CCCCN(Cc1ccc(CN)cc1)C(=O)c1ccc2c(c1)nc(CCc1ccc(C(=N)N)cc1)n2Cc1ccc(C)cc1` [Example 93, 2-[2-(4-amidinophenyl)ethyl]-1-(4-methylbenzyl)-benzimidazol-5-yl-carboxylic acid-N-[4-(amino-methyl)-benzyl]-N-n-butyl-amide] gave an inhibition at 10 µM of 56%.
The molecule `CCCCN(Cc1ccc(CN)cc1)C(=O)c1ccc2c(c1)nc(CCc1ccc(C(=N)N)cc1)n2CCCN1CCN(c2ccccc2C)CC1` [Example 96, 2-[2-(4-amidinophenyl)ethyl]-1-{3-[4-(2-methylphenyl)-piperazin-1-yl]-propyl}-benzimidazol-5-yl-carboxylic acid-N-[4-(amino-methyl)-benzyl]-N-n-butyl-amide] came in with an inhibition at 10 µM of 55%.
Molecule `CCCCN(Cc1ccc(CN)cc1)C(=O)c1ccc2c(c1)nc(CCc1ccc(C(=N)N)cc1)n2CCCN1CCOCC1` [Example 97, 2-[2-(4-amidinophenyl)ethyl]-1-[3-(morpholin-4-yl)-propyl]-benzimidazol-5-yl-carboxylic acid-N-[4-(amino-methyl)-benzyl]-N-n-butyl-amide] displayed an inhibition at 10 µM of 56%.
Same read-out and setting: next, `CCCCN(Cc1ccc(CN)cc1)C(=O)c1ccc2c(c1)nc(CCc1ccc(C(=N)N)cc1)n2CC1CCCO1` (stereo not drawn) [Example 98, 2-[2-(4-amidinophenyl)ethyl]-1-(tetrahydrofuran-2-yl-methyl)-benzimidazol-5-yl-carboxylic acid-N-[4-(amino-methyl)-benzyl]-N-n-butyl-amide]: 67%; `CCCCN(Cc1ccc(CN)cc1)C(=O)c1ccc2c(c1)nc(CCc1ccc(C(=N)N)cc1)n2Cc1cccs1` [Example 99, 2-[2-(4-amidinophenyl)ethyl]-1-(2-thiophenyl-methyl)-benzimidazol-5-yl-carboxylic acid-N-[4-(amino-methyl)-benzyl]-N-n-butyl-amide]: 58%.
